Converted amounts (≈) assume the structure as drawn.
Legend:
[1] = system: Citrobacter freundii; assay: In vitro antibacterial activity against C. freundii(GC 2211) without preincubation in mouse serum; format: functional
[2] = target: T1, Dipeptidase 1 (Sus scrofa) (UniProt P22412); assay: Relative hydrolysis by hog Dehydropeptidase; format: functional
T1 sequence (whole entry): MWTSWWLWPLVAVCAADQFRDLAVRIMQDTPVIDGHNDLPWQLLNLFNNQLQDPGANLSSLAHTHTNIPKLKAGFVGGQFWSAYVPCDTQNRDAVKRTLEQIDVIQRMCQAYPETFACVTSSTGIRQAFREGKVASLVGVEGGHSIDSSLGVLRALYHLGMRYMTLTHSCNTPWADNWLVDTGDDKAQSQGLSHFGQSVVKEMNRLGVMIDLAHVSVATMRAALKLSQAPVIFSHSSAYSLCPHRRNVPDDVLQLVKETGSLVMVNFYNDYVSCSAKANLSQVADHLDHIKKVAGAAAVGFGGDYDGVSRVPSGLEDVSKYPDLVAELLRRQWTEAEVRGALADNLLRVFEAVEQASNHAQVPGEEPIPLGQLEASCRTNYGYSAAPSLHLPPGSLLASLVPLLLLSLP

[3] = system: Enterobacter cloacae; assay: In vitro antibacterial activity against E. cloacae(GC 2209) without pre-incubation in mouse serum; format: functional
[4] = system: Enterococcus faecium; assay: In vitro for antibacterial activity against E. faecium(GC 1182) without pre-incubation in mouse serum; format: functional
[5] = system: Escherichia coli; assay: In vitro antibacterial activity expressed as MIC against Escherichia coli (ATCC 25922) without pre-incubation in mouse serum; format: functional
[6] = system: Escherichia coli; assay: In vitro antibacterial activity expressed as MIC against E. coli(GC 1792) without pre-incubation in mouse serum; format: functional
[7] = system: Escherichia coli; assay: In vitro antibacterial activity expressed as MIC against E. coli(GC 2205) without pre-incubation in mouse serum; format: functional
[8] = system: Mus musculus; assay: Antibacterial activity against Escherichia coli (311) infection in mice after single oral dose, activity expressed as ED50; format: functional
[9] = system: Mus musculus; assay: Antibacterial activity against Escherichia coli (311) infection in mice after single subcutaneous dose, activity expressed as ED50; format: functional; conditions: sc
[10] = system: Pseudomonas aeruginosa; assay: In vitro antibacterial activity against Pseudomonas aeruginosa (ATCC 27853) without pre-incubation in mouse serum; format: functional
[11] = system: Pseudomonas aeruginosa; assay: In vitro antibacterial activity against P. aeruginosa(GC 1544 oprd) without pre-incubation in mouse serum; format: functional
[12] = system: Staphylococcus aureus; assay: In vitro antibacterial activity against S. aureus(ATCC 29213) without pre-incubation in mouse serum; format: functional
[13] = system: Staphylococcus aureus; assay: In vitro antibacterial activity against S. aureus(GC 2220 MRSA) without pre-incubation in mouse serum; format: functional
[14] = system: Acinetobacter calcoaceticus; assay: In vitro antibacterial activity against Acinetobacter calcoaceticus (GC 756) without preincubation in mouse serum; format: functional
[15] = system: Morganella morganii; assay: In vitro antibacterial activity against M. morganii(GC 2213) without preincubation in mouse serum
[16] = system: Enterococcus faecalis; assay: In vitro antibacterial activity against E. faecalis(GC 842) without pre-incubation in mouse serum
[17] = system: Stenotrophomonas maltophilia; assay: In vitro antibacterial activity against X. maltophilia(GC 562) without pre-incubation in mouse serum
[18] = system: Acinetobacter calcoaceticus; assay: In vitro antibacterial activity against Acinetobacter calcoaceticus (GC 756) following preincubation in mouse serum; format: functional
[19] = system: Citrobacter freundii; assay: In vitro antibacterial activity against C. freundii(GC 2211) following pre-incubation in mouse serum; format: functional
[20] = system: Enterococcus faecalis; assay: In vitro antibacterial activity against E. faecalis(GC 842) without pre-incubation in mouse serum; format: functional
[21] = system: Enterococcus faecalis; assay: In vitro antibacterial activity against E. faecalis(GC 842) following pre-incubation in mouse serum; format: functional
[22] = system: Enterobacter cloacae; assay: In vitro antibacterial activity against E. cloacae(GC 2209) following preincubation in mouse serum; format: functional
[23] = system: Escherichia coli; assay: In vitro antibacterial activity expressed as MIC against Escherichia coli (ATCC 25922) following pre-incubation in mouse serum; format: functional
[24] = system: Escherichia coli; assay: In vitro antibacterial activity expressed as MIC against E. coli(GC 1792) following pre-incubation in mouse serum; format: functional
[25] = system: Escherichia coli; assay: In vitro antibacterial activity expressed as MIC against E. coli(GC 2205) following pre-incubation in mouse serum; format: functional
[26] = system: Morganella morganii; assay: In vitro antibacterial activity against M. morganii(GC 2213) following pre-incubation in mouse serum; format: functional
[27] = system: Morganella morganii; assay: In vitro antibacterial activity against M. morganii(GC 2213) without pre-incubation in mouse serum; format: functional
[28] = system: Pseudomonas aeruginosa; assay: In vitro antibacterial activity against Pseudomonas aeruginosa (ATCC 27853) following pre-incubation in mouse serum; format: functional
[29] = system: Staphylococcus aureus; assay: In vitro antibacterial activity against S aureus(ATCC 29213) following preincubation in mouse serum; format: functional
[30] = system: Stenotrophomonas maltophilia; assay: In vitro antibacterial activity against X. maltophilia(GC 562) without pre-incubation in mouse serum; format: functional
[31] = system: Staphylococcus aureus; assay: In vitro antibacterial activity against S. aureus(GC 2220 MRSA) following pre-incubation in mouse serum; format: functional
[32] = system: Pseudomonas aeruginosa; assay: In vitro antibacterial activity against P. aeruginosa(GC 1544 oprd) following pre-incubation in mouse serum; format: functional
[33] = system: Stenotrophomonas maltophilia; assay: In vitro antibacterial activity against X. maltophilia(GC 562) following pre-incubation in mouse serum; format: functional
[34] = system: Enterococcus faecium; assay: In vitro for antibacterial activity against E. faecium(GC 1182) following pre-incubation in mouse serum; format: functional

Row | MIC [1] | Relative hydrolysis [2] | MIC [3] | MIC [4] | MIC [5] | MIC [6] | MIC [7] | MIC [10] | MIC [11] | MIC [12] | MIC [13] | MIC [14] | MIC [18] | MIC [19] | MIC [20] | MIC [21] | MIC [22] | MIC [23] | Compound | ED50 [8] | ED50 [9] | other results
1 | > 128 µg/mL | 11 | > 128 µg/mL | > 128 µg/mL | 32 µg/mL (≈ 54.4 µM) | 16 µg/mL (≈ 27.2 µM) | 20 µg/mL (≈ 34 µM) | > 128 µg/mL | > 128 µg/mL | 4 µg/mL (≈ 6.8 µM) | 128 µg/mL (≈ 217 µM) | > 128 µg/mL | 4 µg/mL (≈ 6.8 µM) | 0.25 µg/mL (≈ 0.425 µM) | 64 µg/mL (≈ 109 µM) | 2 µg/mL (≈ 3.4 µM) | 0.12 µg/mL (≈ 0.204 µM) | < 0.06 µg/mL | CCOC(=O)OCOC(=O)C1=C(S[C@@H]2CCO[C@@H]2CNC(=O)OCOC(=O)C(C)C)[C@H](C)C2[C@@H]([C@@H](C)O)C(=O)N12 (stereo not given in full) | 0.56 mg/kg | 0.4 mg/kg | MIC [24]: 0.06 µg/mL (≈ 0.102 µM); MIC [25]: 0.06 µg/mL (≈ 0.102 µM); MIC [26]: 1 µg/mL (≈ 1.7 µM); MIC [27]: 128 µg/mL (≈ 217 µM); MIC [28]: 16 µg/mL (≈ 27.2 µM); MIC [29]: 0.06 µg/mL (≈ 0.102 µM); MIC [30]: > 128 µg/mL; MIC [31]: 4 µg/mL (≈ 6.8 µM); MIC [32]: 32 µg/mL (≈ 54.4 µM); MIC [33]: > 128 µg/mL; MIC [34]: 128 µg/mL (≈ 217 µM)
2 | > 128 µg/mL | 19 | > 128 µg/mL | > 128 µg/mL | 128 µg/mL (≈ 208 µM) | > 128 µg/mL | 1 µg/mL (≈ 1.62 µM) | > 128 µg/mL | > 128 µg/mL | 4 µg/mL (≈ 6.49 µM) | 64 µg/mL (≈ 104 µM) | > 128 µg/mL | 8 µg/mL (≈ 13 µM) | 0.5 µg/mL (≈ 0.811 µM) | 32 µg/mL (≈ 51.9 µM) | 2 µg/mL (≈ 3.24 µM) | 0.12 µg/mL (≈ 0.195 µM) | 0.06 µg/mL (≈ 0.0973 µM) | CCOC(=O)OCOC(=O)C1=C(S[C@@H]2CCO[C@@H]2CNC(=O)OC(C)OC(=O)C(C)(C)C)[C@H](C)C2[C@@H]([C@@H](C)O)C(=O)N12 (stereo not given in full) | 0.42 mg/kg | 0.46 mg/kg | MIC [24]: 0.06 µg/mL (≈ 0.0973 µM); MIC [25]: 0.06 µg/mL (≈ 0.0973 µM); MIC [26]: 2 µg/mL (≈ 3.24 µM); MIC [27]: > 128 µg/mL; MIC [28]: 32 µg/mL (≈ 51.9 µM); MIC [29]: 0.06 µg/mL (≈ 0.0973 µM); MIC [30]: > 128 µg/mL; MIC [31]: 4 µg/mL (≈ 6.49 µM); MIC [32]: 64 µg/mL (≈ 104 µM); MIC [33]: > 128 µg/mL; MIC [34]: 64 µg/mL (≈ 104 µM)
3 | 128 µg/mL (≈ 223 µM) | 4.9 | 64 µg/mL (≈ 111 µM) | > 128 µg/mL | 4 µg/mL (≈ 6.96 µM) | 8 µg/mL (≈ 13.9 µM) | 1 µg/mL (≈ 1.74 µM) | > 128 µg/mL | > 128 µg/mL | 8 µg/mL (≈ 13.9 µM) | > 128 µg/mL | > 128 µg/mL | 4 µg/mL (≈ 6.96 µM) | 0.25 µg/mL (≈ 0.435 µM) | 64 µg/mL (≈ 111 µM) | 2 µg/mL (≈ 3.48 µM) | 0.12 µg/mL (≈ 0.209 µM) | < 0.06 µg/mL | CCOC(=O)OCOC(=O)C1=C(S[C@@H]2CCO[C@@H]2CNC(=O)OC(C)OC(C)=O)[C@H](C)C2[C@@H]([C@@H](C)O)C(=O)N12 (stereo not given in full) | 0.83 mg/kg | 0.59 mg/kg | MIC [24]: < 0.06 µg/mL; MIC [25]: 0.06 µg/mL (≈ 0.104 µM); MIC [26]: 1 µg/mL (≈ 1.74 µM); MIC [27]: 32 µg/mL (≈ 55.7 µM); MIC [28]: 16 µg/mL (≈ 27.8 µM); MIC [29]: 0.03 µg/mL (≈ 0.0522 µM); MIC [30]: > 128 µg/mL; MIC [31]: 2 µg/mL (≈ 3.48 µM); MIC [32]: 32 µg/mL (≈ 55.7 µM); MIC [33]: > 128 µg/mL; MIC [34]: 128 µg/mL (≈ 223 µM)

Row | Compound | MIC [1] | Relative hydrolysis [2] | MIC [3] | MIC [4] | MIC [5] | MIC [6] | MIC [7] | MIC [10] | MIC [11] | MIC [12] | MIC [13] | MIC [14] | MIC [18] | MIC [19] | MIC [20] | MIC [21] | MIC [22] | MIC [23] | ED50 [8] | ED50 [9] | other results
4 | C[C@@H](O)[C@H]1C(=O)N2C(C(=O)O)=C(S[C@@H]3CCO[C@@H]3CN)[C@H](C)[C@H]12 | < 0.06 µg/mL | 8.5 | < 0.06 µg/mL | 64 µg/mL (≈ 187 µM) | < 0.06 µg/mL | < 0.06 µg/mL | < 0.06 µg/mL | 8 µg/mL (≈ 23.4 µM) | 16 µg/mL (≈ 46.7 µM) | < 0.06 µg/mL | 1 µg/mL (≈ 2.92 µM) | 2 µg/mL (≈ 5.84 µM) | – | – | – | – | – | – | 3.8 mg/kg | 0.34 mg/kg | MIC [15]: 0.5 µg/mL (≈ 1.46 µM); MIC [16]: 0.5 µg/mL (≈ 1.46 µM); MIC [17]: > 128 µg/mL
